In ChEMBL document CHEMBL5625248, “Identification of unique indolylcyanoethylenyl sulfonylanilines as novel structural scaffolds of potential antibacterial agents” (Eur J Med Chem, 2023):
≈ marks a conversion by molar mass, not a printed value. Calls of active or inactive are those of the source. No cut-off for these calls is given here.

Assays:
Cell membrane [1] = test: Induction of inner membrane permeabilization in Escherichia coli ATCC 25922 assessed as increase in fluorescence intensity by PI staining based fluorescence analysis; type: cell membranes
Cell membrane [2] = test: Induction of membrane depolarization in Escherichia coli ATCC 25922 assessed as increase in fluorescence intensity at 1 to 8 times MIC by DiSC3(5) dye-based fluorescence assay; type: cell membranes; settings: TDE = time-dependent effect
Cell membrane [3] = test: Induction of outer membrane permeabilization in Acinetobacter baumannii assessed as increase in fluorescence intensity by NPN-dye based fluorescence analysis; type: cell membranes
Cell membrane [4] = test: Induction of membrane depolarization in Acinetobacter baumannii assessed as increase in fluorescence intensity at 1 to 8 times MIC by DiSC3(5) dye-based fluorescence assay; type: cell membranes; settings: TDE = time-dependent effect
Escherichia coli [5] = test: Antibacterial activity against Escherichia coli ATCC 25922 assessed as reduction in LDH activity; type: functional, organism-based
Erythrocyte = test: Hemolytic activity in human RBC assessed as intact cell surface at 512 ug/ml incubated for 1 hr by microscopic analysis; type: toxicity, cell-based; settings: dose 512 µg/ml
Calf thymus DNA [6] = test: Binding affinity to calf thymus DNA assessed as DNA intercalation by measuring hypochromic shift by absorbance based UV-Vis spectroscopic analysis; type: nucleic-acid assay; settings: Bos taurus
Escherichia coli [7] = test: Bactericidal activity against Escherichia coli ATCC 25922 assessed as reduction in bacterial growth at 4 times MIC observed after 2 hrs by time-kill kinetic assay; type: functional; design: scale not given: the % may be the effect or the level left
Escherichia coli [8] = test: Induction of drug resistance against Escherichia coli ATCC 25922 assessed as fold increase at MIC measured after 16 passages; type: functional
Escherichia coli [9] = test: Antibacterial activity against Escherichia coli assessed as inhibition of bacterial growth incubated for 18 hrs by two fold broth microdilution assay; type: functional
Staphylococcus aureus [10] = test: Antibacterial activity against Staphylococcus aureus ATCC 29213 assessed as inhibition of bacterial growth incubated for 18 hrs by two fold broth microdilution assay; type: functional
Acinetobacter baumannii [11] = test: Induction of drug resistance against Acinetobacter baumannii assessed as fold increase at MIC measured after 16 passages; type: functional
Cell membrane [12] = test: Induction of outer membrane permeabilization in Escherichia coli ATCC 25922 assessed as increase in fluorescence intensity by NPN-dye based fluorescence analysis; type: cell membranes
Cell membrane [13] = test: Induction of cell membrane disruption in Escherichia coli ATCC 25922 assessed as increase in protein leakage at 0.5 to 8 times MIC; type: cell membranes
Acinetobacter baumannii [14] = test: Antibacterial activity against Acinetobacter baumannii assessed as increase in intracellular ROS production by DCFH-DA staining based assay; type: functional, organism-based
Cell membrane [15] = test: Induction of membrane depolarization in Escherichia coli ATCC 25922 assessed as increase in fluorescence intensity measured at 20 to 120 min by DiSC3(5) dye-based fluorescence assay; type: cell membranes; settings: time 20-120 min
Enterococcus faecalis = test: Antibacterial activity against Enterococcus faecalis assessed as inhibition of bacterial growth incubated for 18 hrs by two fold broth microdilution assay; type: functional
Escherichia coli [16] = test: Antibacterial activity against Escherichia coli ATCC 25922 assessed as reduction in biofilm formation at 8 times MIC relative to control; type: functional; design: scale not given: the % may be the effect or the level left
Acinetobacter baumannii [17] = test: Antibacterial activity against Acinetobacter baumannii assessed as reduction in metabolic activity by alamar blue staining based assay; type: functional, organism-based
Acinetobacter baumannii [18] = test: Bactericidal activity against Acinetobacter baumannii assessed as reduction in bacterial growth at 4 times MIC observed after 2 hrs by time-kill kinetic assay; type: functional; design: scale not given: the % may be the effect or the level left
[19] = Cytotoxicity against human Colon epithelial cell at 20 ug/ml; type: toxicity, cell-based; settings: dose 20 µg/ml
Acinetobacter baumannii [20] = test: Antibacterial activity against Acinetobacter baumannii assessed as increase in intracellular ROS production by measuring green fluorescence by DCFH-DA staining based microscopic analysis; type: functional, organism-based
Cell membrane [21] = test: Induction of membrane depolarization in Acinetobacter baumannii assessed as increase in fluorescence intensity measured at 20 to 120 min by DiSC3(5) dye-based fluorescence assay; type: cell membranes; settings: time 20-120 min
Staphylococcus aureus [22] = test: Antibacterial activity against methicilin-resistant Staphylococcus aureus N315 assessed as inhibition of bacterial growth incubated for 18 hrs by two fold broth microdilution assay; type: functional
Cell membrane [23] = test: Induction of cell membrane disruption in Acinetobacter baumannii assessed as cell membrane shrank at 2 times MIC by scanning electron microscopic analysis; type: cell membranes
Staphylococcus aureus [24] = test: Antibacterial activity against Staphylococcus aureus ATCC 25923 assessed as inhibition of bacterial growth incubated for 18 hrs by two fold broth microdilution assay; type: functional
Acinetobacter baumannii [25] = test: Antibacterial activity against Acinetobacter baumannii assessed as inhibition of bacterial growth incubated for 18 hrs by two fold broth microdilution assay; type: functional
Escherichia coli [26] = test: Antibacterial activity against Escherichia coli ATCC 25922 assessed as increase in intracellular ROS production by DCFH-DA staining based assay; type: functional, organism-based
Pseudomonas aeruginosa [27] = test: Antibacterial activity against Pseudomonas aeruginosa ATCC 27853 assessed as inhibition of bacterial growth incubated for 18 hrs by two fold broth microdilution assay; type: functional
Escherichia coli [28] = test: Antibacterial activity against Escherichia coli ATCC 25922 assessed as inhibition of bacterial growth incubated for 18 hrs by two fold broth microdilution assay; type: functional
Pseudomonas aeruginosa [29] = test: Antibacterial activity against Pseudomonas aeruginosa assessed as inhibition of bacterial growth incubated for 18 hrs by two fold broth microdilution assay; type: functional
[30] = Cytotoxicity against human Colon epithelial cell assessed as cell viability upto 50 ug/ml relative to control; type: toxicity, cell-based; settings: colon epithelial cells, up to 50 µg/mL, read-out: Activity
Escherichia coli [31] = test: Antibacterial activity against Escherichia coli ATCC 25922 assessed as increase in intracellular ROS production by measuring green fluorescence by DCFH-DA staining based microscopic analysis; type: functional, organism-based
Escherichia coli [32] = test: Antibacterial activity against Escherichia coli ATCC 25922 assessed as reduction in metabolic activity by alamar blue staining based assay; type: functional, organism-based
[33] = Hemolytic activity in human RBC assessed as hemolysis at 512 ug/ml incubated for 1 hr relative to control; type: toxicity, cell-based, Erythrocyte; settings: human red blood cells (erythrocytes), at 512 µg/mL, read-out: Activity
Cell membrane [34] = test: Induction of cell membrane disruption in Escherichia coli ATCC 25922 assessed as cell membrane shrank at 2 times MIC by scanning electron microscopic analysis; type: cell membranes
Acinetobacter baumannii [35] = test: Induction of oxidative stress in Acinetobacter baumannii assessed as decrease in GSH activity by Ellman's method; type: functional, organism-based
[36] = Cytotoxicity against human Squamous epithelial cell at 20 ug/ml; type: toxicity, cell-based; settings: dose 20 µg/ml
Cell membrane [37] = test: Induction of inner membrane damage in Acinetobacter baumannii at 1 to 4 times MIC by PI staining fluorescence microscopy; type: cell membranes
Cell membrane [38] = test: Induction of cell membrane disruption in Acinetobacter baumannii assessed as increase in protein leakage at 0.5 to 8 times MIC; type: cell membranes
Escherichia coli [39] = test: Bactericidal activity against Escherichia coli ATCC 25922 assessed as reduction in colony forming unit at MIC by time-kill kinetic assay; type: functional
Calf thymus DNA [40] = test: Binding affinity to calf thymus DNA assessed as decrease in fluorescence intensity of AO-DNA binding by acridine orange probe based competitive binding assay; type: nucleic-acid assay; settings: Bos taurus
Escherichia coli [41] = test: Antibacterial activity against Escherichia coli ATCC 25922 assessed as reduction in biofilm formation; type: functional, organism-based
Acinetobacter baumannii [42] = test: Antibacterial activity against Acinetobacter baumannii assessed as reduction in biofilm formation; type: functional, organism-based
[43] = Cytotoxicity against human Squamous epithelial cell assessed as cell viability upto 50 ug/ml relative to control; type: toxicity, cell-based; settings: squamous epithelial cells, up to 50 µg/mL, read-out: Activity
Klebsiella pneumoniae = test: Antibacterial activity against Klebsiella pneumoniae assessed as inhibition of bacterial growth incubated for 18 hrs by two fold broth microdilution assay; type: functional
Acinetobacter baumannii [44] = test: Antibacterial activity against Acinetobacter baumannii assessed as reduction in biofilm formation at 8 times MIC relative to control; type: functional; design: scale not given: the % may be the effect or the level left
Cell membrane [45] = test: Induction of inner membrane permeabilization in Acinetobacter baumannii assessed as increase in fluorescence intensity by PI staining based fluorescence analysis; type: cell membranes
Staphylococcus aureus [46] = test: Antibacterial activity against Staphylococcus aureus assessed as inhibition of bacterial growth incubated for 18 hrs by two fold broth microdilution assay; type: functional
Cell membrane [47] = test: Induction of inner membrane damage in Escherichia coli ATCC 25922 at 1 to 4 times MIC by PI staining fluorescence microscopy; type: cell membranes
Escherichia coli [48] = test: Induction of oxidative stress in Escherichia coli ATCC 25922 assessed as decrease in GSH activity by Ellman's method; type: functional, organism-based
Acinetobacter baumannii [49] = test: Bactericidal activity against Acinetobacter baumannii assessed as reduction in colony forming unit at MIC by time-kill kinetic assay; type: functional
Acinetobacter baumannii [50] = test: Antibacterial activity against Acinetobacter baumannii assessed as reduction in LDH activity; type: functional, organism-based

Compound: N#C/C(=C\c1cn(CCO)c2ccccc12)S(=O)(=O)c1ccc(N)cc1
- Activity (Cell membrane [1]): Dose-Dependent Effect
- Activity (Cell membrane [2]): Tde
- Activity (Cell membrane [3]): Dose-Dependent Effect
- Activity (Cell membrane [4]): Tde
- Activity (Escherichia coli [5]): Dose-Dependent Effect
- Activity (Erythrocyte): Non-Toxic
- Activity (Calf thymus DNA [6]): Active
- Activity (Escherichia coli [7]): 57%
- fold change (FC) (Escherichia coli [8]): 8
- MIC (Escherichia coli [9]): 8 mg/L (≈ 21.8 µM)
- MIC (Staphylococcus aureus [10]): 2 mg/L (≈ 5.44 µM)
- fold change (FC) (Acinetobacter baumannii [11]): 8
- Activity (Cell membrane [12]): Dose-Dependent Effect
- Activity (Cell membrane [13]): Active
- Activity (Acinetobacter baumannii [14]): Dose-Dependent Effect
- Activity (Cell membrane [15]): Dose-Dependent Effect
- MIC (Enterococcus faecalis): 4 mg/L (≈ 10.9 µM)
- Activity (Escherichia coli [16]): 21%
- Activity (Acinetobacter baumannii [17]): Dose-Dependent Effect
- Activity (Acinetobacter baumannii [18]): 57%
- Activity [19]: Non-Toxic
- Activity (Acinetobacter baumannii [20]): Dose-Dependent Effect
- Activity (Cell membrane [21]): Dose-Dependent Effect
- MIC (Staphylococcus aureus [22]): 2 mg/L (≈ 5.44 µM)
- Activity (Cell membrane [23]): Active
- MIC (Staphylococcus aureus [24]): 1 mg/L (≈ 2.72 µM)
- MIC (Acinetobacter baumannii [25]): 0.5 mg/L (≈ 1.36 µM)
- Activity (Escherichia coli [26]): Dose-Dependent Effect
- MIC (Pseudomonas aeruginosa [27]): 4 mg/L (≈ 10.9 µM)
- MIC (Escherichia coli [28]): 0.5 mg/L (≈ 1.36 µM)
- MIC (Pseudomonas aeruginosa [29]): 2 mg/L (≈ 5.44 µM)
- viability [30]: > 85%
- Activity (Escherichia coli [31]): Dose-Dependent Effect
- Activity (Escherichia coli [32]): Dose-Dependent Effect
- hemolysis at 1 h, 512 ug/ml [33]: < 3%
- Activity (Cell membrane [34]): Active
- Activity (Acinetobacter baumannii [35]): Dose-Dependent Effect
- Activity [36]: Non-Toxic
- Activity (Cell membrane [37]): Active
- Activity (Cell membrane [38]): Active
- Activity (Escherichia coli [39]): 2.5 log10CFU
- Activity (Calf thymus DNA [40]): Active
- Activity (Escherichia coli [41]): Dose-Dependent Effect
- Activity (Acinetobacter baumannii [42]): Dose-Dependent Effect
- viability [43]: > 85%
- MIC (Klebsiella pneumoniae): 8 mg/L (≈ 21.8 µM)
- Activity (Acinetobacter baumannii [44]): 39%
- Activity (Cell membrane [45]): Dose-Dependent Effect
- MIC (Staphylococcus aureus [46]): 2 mg/L (≈ 5.44 µM)
- Activity (Cell membrane [47]): Active
- Activity (Escherichia coli [48]): Dose-Dependent Effect
- Activity (Acinetobacter baumannii [49]): 2 log10CFU
- Activity (Acinetobacter baumannii [50]): Dose-Dependent Effect
